# Laboratory results reported in ChEMBL document CHEMBL1201862, “PubChem BioAssay data set” (2004).
#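 The compound was tested at five concentrations on cells cultured in 96-well plates, with a 48-hour exposure period. GI50 marks 50% less growth.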 Activity calls are given as the source filed them. No stated cut-off is given here; in the data, active = GI50 up to about 1.1 µM and inactive = higher.
# How the values were obtained:
# Experiment in all cases: growth of human tumour cells (NCI), 48 h
# SK-MEL-5 = test system: SK-MEL-5
# OVCAR-5 = test system: OVCAR-5
# HL-60 = test system: HL-60
# CAKI-1 = test system: CAKI-1
# EKVX = test system: EKVX
# OVCAR-4 = test system: OVCAR-4
# MDA-N = test system: MDA-N
# COLO 205 = test system: COLO 205
# PC-3 = test system: PC-3
# T47D = test system: T47D
# HOP-62 = test system: HOP-62
# OVCAR-3 = test system: OVCAR-3
# SF-268 = test system: SF-268
# HOP-92 = test system: HOP-92
# RXF 393 = test system: RXF 393
# M14 = test system: M14
# SNB-19 = test system: SNB-19
# NCI-H226 = test system: NCI-H226
# UACC-257 = test system: UACC-257
# TK-10 = test system: TK-10
# OVCAR-8 = test system: OVCAR-8
# ACHN = test system: ACHN
# NCI/ADR-RES = test system: NCI/ADR-RES
# HCC 2998 = test system: HCC 2998
# UO-31 = test system: UO-31
# K562 = test system: K562
# SW-620 = test system: SW-620
# SF-295 = test system: SF-295
# Malme-3M = test system: Malme-3M
# CCRF-CEM = test system: CCRF-CEM
# MDA-MB-435 = test system: MDA-MB-435
# A549 = test system: A549
# HCT-116 = test system: HCT-116
# HCT-15 = test system: HCT-15
# U-251 = test system: U-251
# NCI-H522 = test system: NCI-H522
# SNB-75 = test system: SNB-75
# 786-0 = test system: 786-0
# MCF7 = test system: MCF7
# NCI-H460 = test system: NCI-H460
# UACC-62 = test system: UACC-62
# SF-539 = test system: SF-539
# KM12 = test system: KM12
# Hs-578T = test system: Hs-578T
# BT-549 = test system: BT-549
# HT-29 = test system: HT-29
# SK-OV-3 = test system: SK-OV-3
# SN12C = test system: SN12C
# IGROV-1 = test system: IGROV-1
# MDA-MB-231 = test system: MDA-MB-231
# MOLT-4 = test system: MOLT-4
# DU-145 = test system: DU-145
# SK-MEL-2 = test system: SK-MEL-2
# NCI-H23 = test system: NCI-H23
# RPMI-8226 = test system: RPMI-8226
# SR = test system: SR
# LOX IMVI = test system: LOX IMVI
# SK-MEL-28 = test system: SK-MEL-28
structure (smiles),measurement,setting,value
S=c1[nH]c2ccc(Br)cc2c(=S)s1,GI50,SK-MEL-5,16.5 µM (inactive)
same,GI50,OVCAR-5,19.2 µM (inactive)
same,GI50,HL-60,21.6 µM (inactive)
same,GI50,CAKI-1,21.8 µM (inactive)
same,GI50,EKVX,27.8 µM (inactive)
same,GI50,OVCAR-4,10.8 µM (inactive)
same,GI50,MDA-N,23.4 µM (inactive)
same,GI50,COLO 205,16.4 µM (inactive)
same,GI50,PC-3,19.3 µM (inactive)
same,GI50,T47D,22.5 µM (inactive)
same,GI50,HOP-62,34.8 µM (inactive)
same,GI50,OVCAR-3,26.5 µM (inactive)
same,GI50,SF-268,34.4 µM (inactive)
same,GI50,HOP-92,16.6 µM (inactive)
same,GI50,RXF 393,27.6 µM (inactive)
same,GI50,M14,30.5 µM (inactive)
same,GI50,SNB-19,31.5 µM (inactive)
same,GI50,NCI-H226,28.7 µM (inactive)
same,GI50,UACC-257,23.5 µM (inactive)
same,GI50,TK-10,32.9 µM (inactive)
same,GI50,OVCAR-8,31.6 µM (inactive)
same,GI50,ACHN,22.2 µM (inactive)
same,GI50,NCI/ADR-RES,28.6 µM (inactive)
same,GI50,HCC 2998,26.1 µM (inactive)
same,GI50,UO-31,22.1 µM (inactive)
same,GI50,K562,29.6 µM (inactive)
same,GI50,SW-620,30.8 µM (inactive)
same,GI50,SF-295,27.4 µM (inactive)
same,GI50,Malme-3M,33.3 µM (inactive)
same,GI50,CCRF-CEM,30.8 µM (inactive)
same,GI50,MDA-MB-435,23.2 µM (inactive)
same,GI50,A549,30.6 µM (inactive)
same,GI50,HCT-116,21.5 µM (inactive)
same,GI50,HCT-15,29.5 µM
same,GI50,U-251,22.9 µM (inactive)
same,GI50,NCI-H522,25.1 µM (inactive)
same,GI50,SNB-75,28.1 µM (inactive)
same,GI50,786-0,30.8 µM (inactive)
same,GI50,MCF7,17.9 µM (inactive)
same,GI50,NCI-H460,22.1 µM (inactive)
same,GI50,UACC-62,18 µM (inactive)
same,GI50,SF-539,34.4 µM (inactive)
same,GI50,KM12,29.4 µM (inactive)
same,GI50,Hs-578T,40.5 µM (inactive)
same,GI50,BT-549,29.9 µM (inactive)
same,GI50,HT-29,24.4 µM (inactive)
same,GI50,SK-OV-3,30 µM (inactive)
same,GI50,SN12C,19.9 µM (inactive)
same,GI50,IGROV-1,22.1 µM (inactive)
same,GI50,MDA-MB-231,22.8 µM (inactive)
same,GI50,MOLT-4,29.9 µM (inactive)
same,GI50,DU-145,38.1 µM (inactive)
same,GI50,SK-MEL-2,20.6 µM (inactive)
same,GI50,NCI-H23,25.6 µM (inactive)
same,GI50,RPMI-8226,29.2 µM (inactive)
same,GI50,SR,38.5 µM (inactive)
same,GI50,LOX IMVI,32.4 µM (inactive)
same,GI50,SK-MEL-28,52.7 µM (inactive)
